Test results published in the kinase profiling compilation of Christmann-Franck et al. (2016).

Experiments:
Test in all cases: KINOMEscan competition binding
Conditions in all cases: compound 10.0 µM
MARK1 (human) = MARK1 (human) (UniProt Q9P0L2)
[1] = system: EGFR (human), P00533 [A750P; 747-749 del]
PIP5K1C (human) = PIP5K1C (human) (UniProt O60331)
TNK1 (human) = TNK1 (human) (UniProt Q13470)
PDPK1 (human) = PDPK1 (human) (UniProt O15530)
PAK7 (human) = PAK7 (human) (UniProt Q9P286)
STK36 (human) = STK36 (human) (UniProt Q9NRP7)
NUAK1 (human) = NUAK1 (human) (UniProt O60285)
PAK3 (human) = PAK3 (human) (UniProt O75914)
[2] = system: FLT3 (human), P36888 [N841I]
IKBKE (human) = IKBKE (human) (UniProt Q14164)
MKNK2 (human) = MKNK2 (human) (UniProt Q9HBH9)
RPS6KA5 KD2 (human) = RPS6KA5 KD2 (human) (UniProt O75582)
RPS6KB1 (human) = RPS6KB1 (human) (UniProt P23443)
EPHA5 (human) = EPHA5 (human) (UniProt P54756)
CDK18 (human) = CDK18 (human) (UniProt Q07002)
NUAK2 (human) = NUAK2 (human) (UniProt Q9H093)
ANKK1 (human) = ANKK1 (human) (UniProt Q8NFD2)
MAPKAPK5 (human) = MAPKAPK5 (human) (UniProt Q8IW41)
EIF2AK2 (human) = EIF2AK2 (human) (UniProt P19525)
BMP2K (human) = BMP2K (human) (UniProt Q9NSY1)
PAK4 (human) = PAK4 (human) (UniProt O96013)
GRK7 (human) = GRK7 (human) (UniProt Q8WTQ7)
PDGFRA (human) = PDGFRA (human) (UniProt P16234)
PTK2 (human) = PTK2 (human) (UniProt Q05397)
MARK4 (human) = MARK4 (human) (UniProt Q96L34)
BRAF (human) = BRAF (human) (UniProt P15056)
RPS6KA4 KD2 (human) = RPS6KA4 KD2 (human) (UniProt O75676)
MAK (human) = MAK (human) (UniProt P20794)
PRKD3 (human) = PRKD3 (human) (UniProt O94806)
STK32A (human) = STK32A (human) (UniProt Q8WU08)
CSNK1G2 (human) = CSNK1G2 (human) (UniProt P78368)
MKNK1 (human) = MKNK1 (human) (UniProt Q9BUB5)
SLK (human) = SLK (human) (UniProt Q9H2G2)
RIOK3 (human) = RIOK3 (human) (UniProt O14730)
[3] = target: TYK2 JH1 catalytic (human) (UniProt P29597)
CDKL3 (human) = CDKL3 (human) (UniProt Q8IVW4)
FER (human) = FER (human) (UniProt P16591)
TLK1 (human) = TLK1 (human) (UniProt Q9UKI8)
MATK (human) = MATK (human) (UniProt P42679)
SIK3 (human) = SIK3 (human) (UniProt Q9Y2K2)
CaMK1 (human) = CaMK1 (human) (UniProt Q14012)

MATK (human), sequence (P42679 whole entry, looked up): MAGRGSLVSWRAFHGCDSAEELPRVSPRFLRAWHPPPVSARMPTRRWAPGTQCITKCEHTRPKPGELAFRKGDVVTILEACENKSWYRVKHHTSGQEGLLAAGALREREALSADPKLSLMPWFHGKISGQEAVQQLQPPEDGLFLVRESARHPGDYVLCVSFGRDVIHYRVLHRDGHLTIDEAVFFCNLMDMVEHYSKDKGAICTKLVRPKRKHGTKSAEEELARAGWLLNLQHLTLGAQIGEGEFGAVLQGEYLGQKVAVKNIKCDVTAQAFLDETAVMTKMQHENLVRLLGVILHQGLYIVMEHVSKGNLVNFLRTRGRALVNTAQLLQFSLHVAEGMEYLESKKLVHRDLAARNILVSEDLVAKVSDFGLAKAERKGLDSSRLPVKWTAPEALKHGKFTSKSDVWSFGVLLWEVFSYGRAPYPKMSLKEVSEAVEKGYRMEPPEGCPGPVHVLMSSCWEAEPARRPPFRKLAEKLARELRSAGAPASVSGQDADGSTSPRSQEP
PAK4 (human), sequence (O96013 whole entry, looked up): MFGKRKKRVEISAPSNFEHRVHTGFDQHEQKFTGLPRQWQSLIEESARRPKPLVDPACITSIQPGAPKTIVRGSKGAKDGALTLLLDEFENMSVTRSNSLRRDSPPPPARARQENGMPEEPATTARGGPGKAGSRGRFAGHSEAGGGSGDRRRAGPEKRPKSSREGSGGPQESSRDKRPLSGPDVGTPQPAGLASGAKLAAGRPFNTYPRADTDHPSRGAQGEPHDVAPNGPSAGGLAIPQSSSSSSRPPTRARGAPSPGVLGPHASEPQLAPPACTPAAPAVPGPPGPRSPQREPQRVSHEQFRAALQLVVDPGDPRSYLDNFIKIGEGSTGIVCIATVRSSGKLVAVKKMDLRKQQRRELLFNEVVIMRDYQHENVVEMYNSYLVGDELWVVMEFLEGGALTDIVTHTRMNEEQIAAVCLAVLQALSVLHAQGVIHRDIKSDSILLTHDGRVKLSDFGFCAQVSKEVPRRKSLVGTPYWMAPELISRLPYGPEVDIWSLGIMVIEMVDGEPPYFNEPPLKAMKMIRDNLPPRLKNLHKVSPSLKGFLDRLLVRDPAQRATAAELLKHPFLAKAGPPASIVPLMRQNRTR
TYK2 JH1 catalytic (human), sequence (P29597 whole entry, looked up): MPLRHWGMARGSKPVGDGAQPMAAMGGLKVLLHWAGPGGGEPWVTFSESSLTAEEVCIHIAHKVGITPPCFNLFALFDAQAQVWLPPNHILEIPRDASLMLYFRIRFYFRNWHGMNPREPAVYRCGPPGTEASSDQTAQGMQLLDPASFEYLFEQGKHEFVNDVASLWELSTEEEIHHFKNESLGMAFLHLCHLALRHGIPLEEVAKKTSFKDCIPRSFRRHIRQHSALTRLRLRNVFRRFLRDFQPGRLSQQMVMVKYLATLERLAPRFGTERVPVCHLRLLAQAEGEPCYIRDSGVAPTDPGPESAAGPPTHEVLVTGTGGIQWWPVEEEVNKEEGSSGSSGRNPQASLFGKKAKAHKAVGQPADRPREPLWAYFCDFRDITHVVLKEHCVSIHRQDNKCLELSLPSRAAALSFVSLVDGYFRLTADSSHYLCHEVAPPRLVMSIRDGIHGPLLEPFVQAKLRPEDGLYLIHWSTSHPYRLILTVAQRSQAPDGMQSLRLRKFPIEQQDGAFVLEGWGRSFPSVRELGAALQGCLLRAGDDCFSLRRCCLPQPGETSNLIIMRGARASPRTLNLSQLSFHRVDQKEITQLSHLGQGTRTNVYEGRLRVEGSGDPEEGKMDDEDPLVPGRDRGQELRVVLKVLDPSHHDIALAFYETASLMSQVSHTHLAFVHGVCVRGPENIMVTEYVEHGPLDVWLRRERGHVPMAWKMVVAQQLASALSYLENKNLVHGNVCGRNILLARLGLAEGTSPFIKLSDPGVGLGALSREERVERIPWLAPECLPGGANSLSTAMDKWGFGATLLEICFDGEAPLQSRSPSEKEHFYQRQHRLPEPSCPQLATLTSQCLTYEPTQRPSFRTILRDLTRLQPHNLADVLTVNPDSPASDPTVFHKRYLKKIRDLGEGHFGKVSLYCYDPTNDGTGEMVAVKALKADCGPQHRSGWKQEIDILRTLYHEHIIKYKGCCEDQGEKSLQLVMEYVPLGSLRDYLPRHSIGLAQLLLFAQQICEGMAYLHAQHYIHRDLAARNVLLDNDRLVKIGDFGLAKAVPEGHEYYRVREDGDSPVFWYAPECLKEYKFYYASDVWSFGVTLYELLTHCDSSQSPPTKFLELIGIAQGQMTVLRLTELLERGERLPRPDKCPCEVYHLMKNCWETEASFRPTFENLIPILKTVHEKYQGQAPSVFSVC
RPS6KA4 KD2 (human), sequence (O75676 whole entry, looked up): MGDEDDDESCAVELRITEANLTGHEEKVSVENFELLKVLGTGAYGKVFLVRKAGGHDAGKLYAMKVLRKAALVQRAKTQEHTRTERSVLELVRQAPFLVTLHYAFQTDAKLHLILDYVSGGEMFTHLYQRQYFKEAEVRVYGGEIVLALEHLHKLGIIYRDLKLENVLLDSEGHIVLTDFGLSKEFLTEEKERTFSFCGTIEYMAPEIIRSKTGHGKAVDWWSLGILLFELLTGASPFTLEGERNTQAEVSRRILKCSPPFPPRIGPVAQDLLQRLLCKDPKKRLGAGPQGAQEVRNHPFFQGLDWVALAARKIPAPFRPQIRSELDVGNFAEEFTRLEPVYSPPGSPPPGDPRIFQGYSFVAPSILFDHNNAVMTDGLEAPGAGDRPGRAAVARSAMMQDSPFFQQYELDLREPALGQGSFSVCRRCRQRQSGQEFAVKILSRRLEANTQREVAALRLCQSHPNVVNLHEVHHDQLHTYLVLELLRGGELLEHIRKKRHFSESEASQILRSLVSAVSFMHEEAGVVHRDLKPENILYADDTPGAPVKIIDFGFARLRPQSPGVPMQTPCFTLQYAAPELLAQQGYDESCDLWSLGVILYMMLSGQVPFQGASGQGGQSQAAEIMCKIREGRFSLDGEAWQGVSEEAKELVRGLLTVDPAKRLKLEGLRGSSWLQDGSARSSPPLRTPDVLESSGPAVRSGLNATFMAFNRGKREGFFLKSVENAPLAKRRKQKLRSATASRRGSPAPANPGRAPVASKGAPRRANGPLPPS
MAK (human), sequence (P20794 whole entry, looked up): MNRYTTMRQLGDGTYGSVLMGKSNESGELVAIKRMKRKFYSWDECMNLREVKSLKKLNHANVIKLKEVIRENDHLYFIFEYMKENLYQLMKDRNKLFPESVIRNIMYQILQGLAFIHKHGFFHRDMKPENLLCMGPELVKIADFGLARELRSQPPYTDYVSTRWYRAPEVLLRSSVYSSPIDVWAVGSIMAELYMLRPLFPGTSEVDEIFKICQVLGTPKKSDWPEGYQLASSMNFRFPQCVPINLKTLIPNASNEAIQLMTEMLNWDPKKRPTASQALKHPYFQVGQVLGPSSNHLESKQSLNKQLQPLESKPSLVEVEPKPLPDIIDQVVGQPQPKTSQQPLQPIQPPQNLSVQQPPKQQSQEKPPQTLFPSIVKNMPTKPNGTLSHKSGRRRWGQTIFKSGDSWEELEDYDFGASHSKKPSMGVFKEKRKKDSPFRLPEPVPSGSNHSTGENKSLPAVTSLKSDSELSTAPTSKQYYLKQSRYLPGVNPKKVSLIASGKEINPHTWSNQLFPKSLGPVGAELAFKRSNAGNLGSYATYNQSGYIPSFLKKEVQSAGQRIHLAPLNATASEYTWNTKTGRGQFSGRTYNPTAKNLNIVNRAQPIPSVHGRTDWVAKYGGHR
STK32A (human), sequence (Q8WU08 whole entry, looked up): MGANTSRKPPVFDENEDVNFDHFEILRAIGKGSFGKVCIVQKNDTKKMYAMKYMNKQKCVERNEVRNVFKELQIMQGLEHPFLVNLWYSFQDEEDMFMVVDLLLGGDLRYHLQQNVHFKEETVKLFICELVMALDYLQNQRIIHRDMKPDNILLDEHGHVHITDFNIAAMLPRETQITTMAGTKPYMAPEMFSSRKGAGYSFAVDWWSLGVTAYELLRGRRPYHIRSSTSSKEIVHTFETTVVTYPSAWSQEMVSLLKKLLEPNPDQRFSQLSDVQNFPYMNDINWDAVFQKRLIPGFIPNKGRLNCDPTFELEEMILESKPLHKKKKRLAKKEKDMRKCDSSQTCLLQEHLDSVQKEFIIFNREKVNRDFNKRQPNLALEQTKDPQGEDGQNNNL
PAK7 (human), sequence (Q9P286 whole entry, looked up): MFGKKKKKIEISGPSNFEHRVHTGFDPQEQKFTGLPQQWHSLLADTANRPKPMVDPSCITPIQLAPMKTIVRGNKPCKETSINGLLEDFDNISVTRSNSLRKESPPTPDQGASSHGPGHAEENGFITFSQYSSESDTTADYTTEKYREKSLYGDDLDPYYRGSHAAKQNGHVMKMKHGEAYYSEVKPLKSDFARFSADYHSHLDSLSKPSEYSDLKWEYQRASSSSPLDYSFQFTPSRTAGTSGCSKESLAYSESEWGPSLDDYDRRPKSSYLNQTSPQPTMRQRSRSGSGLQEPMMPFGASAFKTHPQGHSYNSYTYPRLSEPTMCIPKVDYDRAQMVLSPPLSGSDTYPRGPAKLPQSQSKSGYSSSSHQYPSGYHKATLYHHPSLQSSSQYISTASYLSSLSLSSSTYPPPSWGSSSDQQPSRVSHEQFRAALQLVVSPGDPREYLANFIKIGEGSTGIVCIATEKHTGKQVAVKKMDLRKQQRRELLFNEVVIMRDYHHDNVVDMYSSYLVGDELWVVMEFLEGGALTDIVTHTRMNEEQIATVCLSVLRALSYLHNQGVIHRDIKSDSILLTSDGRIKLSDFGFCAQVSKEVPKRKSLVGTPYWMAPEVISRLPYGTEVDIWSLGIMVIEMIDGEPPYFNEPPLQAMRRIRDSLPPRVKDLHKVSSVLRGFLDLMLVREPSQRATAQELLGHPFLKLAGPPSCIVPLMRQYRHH

For `Cc1cc([C@@H](C)Nc2ccccc2C(=O)O)c2nc(N3CCOCC3)cc(=O)n2c1`, the kinase still bound, per cent of control (MARK1 (human)) was 90%, the kinase still bound, per cent of control [1] was 100% and the kinase still bound, per cent of control (PIP5K1C (human)) was 55%. It also gave a kinase still bound, per cent of control (TNK1 (human)) of 91%, a kinase still bound, per cent of control (PDPK1 (human)) of 100% and a kinase still bound, per cent of control (PAK7 (human)) of 92%. It also gave a kinase still bound, per cent of control (STK36 (human)) of 82%, a kinase still bound, per cent of control (NUAK1 (human)) of 100% and a kinase still bound, per cent of control (PAK3 (human)) of 12%. For the same compound, the kinase still bound, per cent of control [2] was 26%, the kinase still bound, per cent of control (IKBKE (human)) was 100% and the kinase still bound, per cent of control (MKNK2 (human)) was 100%. For the same compound, the kinase still bound, per cent of control (RPS6KA5 KD2 (human)) was 100%, the kinase still bound, per cent of control (RPS6KB1 (human)) was 100% and the kinase still bound, per cent of control (EPHA5 (human)) was 100%. For the same compound, the kinase still bound, per cent of control (CDK18 (human)) was 83%, the kinase still bound, per cent of control (NUAK2 (human)) was 100% and the kinase still bound, per cent of control (ANKK1 (human)) was 100%. The kinase still bound, per cent of control (MAPKAPK5 (human)) was 90%, the kinase still bound, per cent of control (EIF2AK2 (human)) was 100% and the kinase still bound, per cent of control (BMP2K (human)) was 100%. It also gave a kinase still bound, per cent of control (PAK4 (human)) of 95%, a kinase still bound, per cent of control (GRK7 (human)) of 100% and a kinase still bound, per cent of control (PDGFRA (human)) of 100%. The kinase still bound, per cent of control (PTK2 (human)) was 80%, the kinase still bound, per cent of control (MARK4 (human)) was 100% and the kinase still bound, per cent of control (BRAF (human)) was 74%. The kinase still bound, per cent of control (RPS6KA4 KD2 (human)) was 83%, the kinase still bound, per cent of control (MAK (human)) was 100% and the kinase still bound, per cent of control (PRKD3 (human)) was 85%. The kinase still bound, per cent of control (STK32A (human)) was 100%, the kinase still bound, per cent of control (CSNK1G2 (human)) was 100% and the kinase still bound, per cent of control (MKNK1 (human)) was 31%. The kinase still bound, per cent of control (SLK (human)) was 85%, the kinase still bound, per cent of control (RIOK3 (human)) was 100% and the kinase still bound, per cent of control [3] was 100%. For the same compound, the kinase still bound, per cent of control (CDKL3 (human)) was 96%, the kinase still bound, per cent of control (FER (human)) was 81% and the kinase still bound, per cent of control (TLK1 (human)) was 100%. For the same compound, the kinase still bound, per cent of control (MATK (human)) was 57%, the kinase still bound, per cent of control (SIK3 (human)) was 87% and the kinase still bound, per cent of control (CaMK1 (human)) was 94%.
